For orientation: Dmax means the largest share of the target that was removed. Usually DC50 stands for the concentration giving 50% degradation. For orientation: IC50 means the concentration needed to halve the response being measured. High values mean weaker potency in that assay, low ones greater potency in that assay.

These results are taken from patent US20250195513A1, “DEGRADATION OF IRAK4 BY CONJUGATION OF IRAK4 INHIBITORS WITH E3 LIGASE LIGAND AND METHODS OF USE” (BeiGene, Ltd., priority 2022, published 2025).

Common to all, as to format: cell-based
Assay [1] addresses T1, IRAK4 (Homo sapiens, UniProt Q9NWZ3).
T1 construct: endogenous in cells; host or cells: Karpas299
T1 sequence (Q9NWZ3 1-460): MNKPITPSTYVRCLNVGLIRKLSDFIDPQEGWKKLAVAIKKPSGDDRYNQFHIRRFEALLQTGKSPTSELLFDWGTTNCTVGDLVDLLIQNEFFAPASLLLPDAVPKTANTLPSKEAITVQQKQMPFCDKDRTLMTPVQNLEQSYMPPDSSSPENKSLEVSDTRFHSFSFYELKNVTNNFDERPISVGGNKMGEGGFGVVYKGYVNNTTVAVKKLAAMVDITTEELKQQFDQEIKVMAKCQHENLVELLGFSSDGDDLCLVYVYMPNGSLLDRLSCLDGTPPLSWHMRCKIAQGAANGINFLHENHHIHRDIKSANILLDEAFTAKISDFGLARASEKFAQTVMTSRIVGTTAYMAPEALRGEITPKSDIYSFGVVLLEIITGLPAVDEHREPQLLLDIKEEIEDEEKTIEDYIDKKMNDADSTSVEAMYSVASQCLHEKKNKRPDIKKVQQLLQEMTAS
As to the kind of experiment: IRAK4 Degradation Assay (Karpas299, HTRF/TR-FRET). The note with it: Karpas-299 cells; for Dmax: maximum percentage of degradation. The method in brief:
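Compound potency as DC50 (IC50) came from four-parameter fits of percent IRAK4 degradation. IRAK4 was measured by HTRF (665/620 nm) in lysates of Karpas299 cells seeded at 0.2 million per well. Cells had been treated with compound dilutions for 5 or 24 h.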
(In general: In TR-FRET formats the signal depends on donor and acceptor labels being close together.)

The target in assay [2] is T1, IRAK4. Nature of the assay: IRAK4 Degradation Assay with Human Serum (Karpas299, HTRF/TR-FRET). Particulars: Karpas-299 in human serum, 24 hrs treatment; for DC50: read-out: IRAK4 degradtion with human serum assay DC50; for Dmax: read-out: IRAK4 degradtion with human serum assay Dmax (%). The method in brief: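 Remaining IRAK4 measured by TR-FRET immunoassay on lysates of Karpas299 cells exposed 24 h to compound dilution series in human serum AB. DC50 derived from a Hill-slope fit of % degradation versus concentration.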

In assay [3] the test system is IL-6 production in human PBMC. Nature of the assay: IL-6 Production Assay in Human PBMC (LPS stimulated). Particulars: Homo sapiens, 5 h; for Emax: maximum inhibition, read-out: IL-6 (PBMC) 5 h IMax. The protocol:
Frozen human PBMC (AllCells) were thawed in RPMI 1640 medium (Thermo Scientific) supplemented with 10% heat-inactivated FBS (Thermo Scientific) and recovered at 37° C. overnight. The next day, PBMC were seeded into 96-well plates at the density of 0.2 million cells per well and treated with compounds for 24 h. Then lipopolysaccharide was added at the final concentration of 10 ng/mL for 5 h. Culture supernatant was collected for subsequent measurement of IL-6 concentration by a TR-FRET-based method (Degorce, François, et al. Current chemical genomics. 2009, 3: 22) as described by the manufacturer manual (Cisbio). FRET signals were measured with PHERAstar FSX reader (BMG Labtech).

Assay [4] relates to TNF-α production in THP-1 cells. Nature of the assay: TNF-α Production Assay in THP-1 Cells (LPS stimulated). Particulars: Homo sapiens, THP-1, 24 h; for Emax: maximum inhibition, read-out: TNF-α (THP-1) 24 h IMax. The method in brief:
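Cells (0.2 million/well) pretreated with compounds for 24 h, then stimulated with LPS at 1 μg/mL final for 24 h. TNF-α in culture supernatant quantified by TR-FRET immunoassay.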

Setting [5] is: 5 h treatment, read-out: IRAK4 in Karpas-299 (5 h) Dmax (%).
The mark [6] stands for this setting: 5 h treatment, read-out: IRAK4 in Karpas-299 (5 h) DC50.
Setting [7] is: 24 h treatment, read-out: IRAK4 in Karpas-299 (24 h) Dmax (%).
[8] abbreviates: 24 h treatment, read-out: IRAK4 in Karpas-299 (24 h) DC50.

Molecules are shown by their SMILES.

Take `COC[C@@H]1CN([C@H]2CC[C@H](n3cc4cc(NC(=O)c5ccc6cc(C#N)cnn56)c(C(C)(C)O)cc4n3)CC2)CCN1C1CN(c2cc(F)c([C@H]3CCC(=O)NC3=O)c(F)c2)C1` [Example 387, 3-cyano-N-(2-((1S,4r)-4-((S)-4-(1-(4-((R)-2,6-dioxopiperidin-3-yl)-3,5-difluorophenyl)azetidin-3-yl)-3-(methoxymethyl)piperazin-1-yl)cyclohexyl)-6-(2-hydroxypropan-2-yl)-2H-indazol-5-yl)pyrrolo[1,2-b]pyridazine-7-carboxamide]: the Dmax was 90% on IRAK4 [1] (setting [5]), 98% on IRAK4 [1] (setting [7]) and 95% at IRAK4 [2]. The DC50 worked out at 1.3 nM at IRAK4 [1] (setting [6]), 0.8 nM at IRAK4 [1] (setting [8]) and 6.9 nM on IRAK4 [2]. This molecule also yielded an IC50 in assay [3] of 1.7 nM. In addition, the Emax in assay [3] stood at 53%.
On to `CC(C)(O)c1cc2nn([C@H]3CC[C@H](N4CCN([C@H]5C[C@H](c6ccc(N[C@H]7CCC(=O)NC7=O)cc6)C5)CC4)CC3)cc2cc1NC(=O)c1ccc2cc(C#N)cnn12` [Example 274, 3-cyano-N-(2-((1R,4r)-4-(4-((1S,3R)-3-(4-(((S)-2,6-dioxopiperidin-3-yl)amino)phenyl)cyclobutyl)piperazin-1-yl)cyclohexyl)-6-(2-hydroxypropan-2-yl)-2H-indazol-5-yl)pyrrolo[1,2-b]pyridazine-7-carboxamide], for which the Dmax on IRAK4 [1] (setting [5]) was 97%; at IRAK4 [1] (setting [7]), 97%; on IRAK4 [2] it was 99%. Besides, the values for the DC50 at IRAK4 [1] (setting [6]), on IRAK4 [1] (setting [8]) and at IRAK4 [2] were 9.8 nM, 1.6 nM and 3.7 nM, respectively. The molecule also yielded an IC50 in assay [3] of 2 nM. For the same molecule, in assay [3], the Emax is 64%.
Consider `CC(C)(O)c1cc2nn([C@H]3CC[C@H](N4CCN([C@H]5C[C@@H](c6cc(F)c([C@H]7CCC(=O)NC7=O)c(F)c6)C5)CC4)CC3)cc2cc1NC(=O)c1ccc2cc(C#N)cnn12` [Example 363, 3-cyano-N-(2-((1S,4r)-4-(4-((1S,3S)-3-(4-((R)-2,6-dioxopiperidin-3-yl)-3,5-difluorophenyl)cyclobutyl)piperazin-1-yl)cyclohexyl)-6-(2-hydroxypropan-2-yl)-2H-indazol-5-yl)pyrrolo[1,2-b]pyridazine-7-carboxamide], for which the Dmax on IRAK4 [1] (setting [5]) was 95%; on IRAK4 [1] (setting [7]) it was 96%; on IRAK4 [2], 97%. Further, the DC50 at IRAK4 [1] (setting [6]) was found to be 1.2 nM; on IRAK4 [1] (setting [8]) it was 0.8 nM; on IRAK4 [2] it was 5.9 nM. For the same molecule, the IC50 in assay [3] is 2.2 nM. In assay [3], the Emax is 67%.
As for `CC(C)(O)c1cc2nn([C@H]3CC[C@H](N4C[C@@H]5CN(CCc6cc(F)c([C@H]7CCC(=O)NC7=O)c(F)c6)C[C@H]5C4)CC3)cc2cc1NC(=O)c1ccc2cc(C#N)cnn12` [Example 362, 3-cyano-N-(2-((1S,4r)-4-((3aS,6aS)-5-(4-((R)-2,6-dioxopiperidin-3-yl)-3,5-difluorophenethyl)hexahydropyrrolo[3,4-c]pyrrol-2(1H)-yl)cyclohexyl)-6-(2-hydroxypropan-2-yl)-2H-indazol-5-yl)pyrrolo[1,2-b]pyridazine-7-carboxamide], on IRAK4 [1] (setting [7]), the Dmax amounted to 98%. In addition, the DC50 on IRAK4 [1] (setting [8]) came out at 2.5 nM. Moreover, on IRAK4 [2], the DC50 was 5.1 nM and the Dmax turned out to be 97%. Also, in assay [3], the 50% inhibitory concentration (IC50) was determined as 6 nM and the Emax stood at 71%.
In the case of `COC[C@H]1CN([C@H]2CC[C@H](n3cc4cc(NC(=O)c5ccc6cc(C#N)cnn56)c(C(C)(C)O)cc4n3)CC2)CCN1CC1CN(c2cc(F)c([C@H]3CCC(=O)NC3=O)c(F)c2)C1` [Example 367, 3-cyano-N-(2-((1R,4r)-4-((R)-4-((1-(4-((R)-2,6-dioxopiperidin-3-yl)-3,5-difluorophenyl)azetidin-3-yl)methyl)-3-(methoxymethyl)piperazin-1-yl)cyclohexyl)-6-(2-hydroxypropan-2-yl)-2H-indazol-5-yl)pyrrolo[1,2-b]pyridazine-7-carboxamide], the Dmax at IRAK4 [1] (setting [5]) came out at 97%; at IRAK4 [1] (setting [7]) it was 99%; on IRAK4 [2], 96%. Moreover, the DC50 came out at 3.1 nM on IRAK4 [1] (setting [6]), 0.7 nM at IRAK4 [1] (setting [8]) and 12 nM on IRAK4 [2]. In addition, half-maximal inhibition in assay [4] (IC50) required 11 nM. Moreover, the Emax in assay [4] came to 96%.
For `COC[C@H]1CN([C@H]2CC[C@H](n3cc4cc(NC(=O)c5ccc6cc(C#N)cnn56)c(C(C)(C)O)cc4n3)CC2)CCN1C(=O)C1CN(c2cc(F)c(N3CCC(=O)NC3=O)c(F)c2)C1` [Example 315, 3-cyano-N-(2-((1R,4r)-4-((R)-4-(1-(4-(2,4-dioxotetrahydropyrimidin-1(2H)-yl)-3,5-difluorophenyl)azetidine-3-carbonyl)-3-(methoxymethyl)piperazin-1-yl)cyclohexyl)-6-(2-hydroxypropan-2-yl)-2H-indazol-5-yl)pyrrolo[1,2-b]pyridazine-7-carboxamide], the Dmax on IRAK4 [1] (setting [5]) came to 97%; on IRAK4 [1] (setting [7]), 95%; on IRAK4 [2], 99%. Moreover, the DC50 turned out to be 0.9 nM at IRAK4 [1] (setting [6]), 0.6 nM on IRAK4 [1] (setting [8]) and 18 nM at IRAK4 [2]. The molecule further came in with an IC50 in assay [4] of 22 nM. The Emax in assay [4] was 93%.
With `COC[C@@H]1CN([C@H]2CC[C@H](n3cc4cc(NC(=O)c5ccc6cc(C#N)cnn56)c(C(C)(C)O)cc4n3)CC2)CCN1CC1CN(c2cc(F)c([C@H]3CCC(=O)NC3=O)c(F)c2)C1` [Example 358, 3-cyano-N-(2-((1S,4r)-4-((S)-4-((1-(4-((R)-2,6-dioxopiperidin-3-yl)-3,5-difluorophenyl)azetidin-3-yl)methyl)-3-(methoxymethyl)piperazin-1-yl)cyclohexyl)-6-(2-hydroxypropan-2-yl)-2H-indazol-5-yl)pyrrolo[1,2-b]pyridazine-7-carboxamide], the Dmax on IRAK4 [1] (setting [5]) is 95%; on IRAK4 [1] (setting [7]), 99%; on IRAK4 [2], 96%. The results for the DC50 on IRAK4 [1] (setting [6]), at IRAK4 [1] (setting [8]) and on IRAK4 [2] were 1.9 nM, 0.5 nM and 5.4 nM, respectively. The same molecule had an IC50 in assay [4] of 17 nM. Besides, the Emax in assay [4] is 96%.
Consider `COC[C@@H]1CN([C@H]2CC[C@H](n3cc4cc(NC(=O)c5ccc6cc(C#N)cnn56)c(C(C)(C)O)cc4n3)CC2)CCN1C1CCN(c2cc(F)c([C@H]3CCC(=O)NC3=O)c(F)c2)CC1` [Example 319], for which the values for the maximal degradation (Dmax) on IRAK4 [1] (setting [5]), at IRAK4 [1] (setting [7]) and at IRAK4 [2] were 95%, 98% and 98%, respectively. Also, the DC50 on IRAK4 [1] (setting [6]) came out at 1.2 nM; on IRAK4 [1] (setting [8]), 2 nM; at IRAK4 [2] it was 6.7 nM. This molecule returned an IC50 in assay [4] of 39 nM. Besides, in assay [4], the Emax came out at 90%.
On to `C[C@@H]1CN([C@H]2CC[C@H](n3cc4cc(NC(=O)c5ccc6cc(C#N)cnn56)c(C(C)(C)O)cc4n3)CC2)CCN1C(=O)C1CN(c2cc(F)c([C@H]3CCC(=O)NC3=O)c(F)c2)C1` [Example 309, 3-cyano-N-(2-((1R,4r)-4-((R)-4-(1-(4-((R)-2,6-dioxopiperidin-3-yl)-3,5-difluorophenyl)azetidine-3-carbonyl)-3-methylpiperazin-1-yl)cyclohexyl)-6-(2-hydroxypropan-2-yl)-2H-indazol-5-yl)pyrrolo[1,2-b]pyridazine-7-carboxamide], for which the Dmax on IRAK4 [1] (setting [7]) was 97%. Further, on IRAK4 [1] (setting [8]), the DC50 turned out to be 0.4 nM. Further, at IRAK4 [2], the DC50 stood at 14 nM and the Dmax was found to be 100%. Besides, in assay [4], the IC50 came to 31 nM and the Emax came out at 90%.
